Consider eleven sequences from patent US20060154243A1 (priority 2003, published 2006).

Test [1] relates to rabbit serum obtained by immunizing with SARS-CoV strain Frankfurt 1. It is filed as binding.
A further test concerns two control sera. It is filed as binding, human.
The subject of test [2] is sera SARS-green, SARS-yellow, 1a, 1b, 2, 6, 37, 62 and London. It is filed as binding, human.
In test [3] the test system is control serum LUMC (pooled serum of ten healthy hospital workers). It is filed as binding, human.
The test system of another test is serum 62 (individual 62). It is filed as binding, human.
In test [4] the test system is serum 1b (individual 1, late serum). It is filed as binding, human.
The next test deals with serum SARS-yellow. It is filed as binding, human.
The subject of another test is serum 37 (individual 37). It is filed as binding, human.
In a further test the test system is serum London. It is filed as binding, human.
The test system of another test is serum 6 (individual 6). It is filed as binding, human.
Test [5] deals with control serum Blood-bank (commercial negative donor pooled serum). It is filed as binding, human.
The next test deals with serum SARS-green. It is filed as binding, human.
The subject of the next test is serum 2 (individual 2). It is filed as binding, human.
For test [6], the system named is serum 1a (individual 1, early serum). It is filed as binding, human.

Turning to NVVPPALHLVDPQIQ, in [1], the “Rabbit serum linear peptides” value is 0.1 and the “Rabbit serum looped peptides” value came out at 0.5. Further, the “Recognition by at least one of the control sera” value (from here on “Recognition by at least one”) with two control sera is listed as “recognized by at least one of the control sera”. For the same sequence, the “Recognition of the peptide by sera of individuals infected by SARS-CoV, form recognized” value (“Recognition of the peptide” below) in test [2] is “recognized in linear and in looped form”.
As for VVPPALHLVDPQIQL, in test [1], the “Rabbit serum linear peptides” value was 1.2 and the “Rabbit serum looped peptides” value stood at 0.4. In addition, the “Recognition by at least one” value in the test on two control sera is “recognized by at least one of the control sera”. Besides, in [2], the “Recognition of the peptide” value was “recognized in linear and in looped form”.
Regarding TNVVPPALHLVDPQI, in test [1], the “Rabbit serum linear peptides” value is 0.1 and the “Rabbit serum looped peptides” value was found to be 0.5. Besides, in the test with two control sera, the “Recognition by at least one” value is on record as “recognized by at least one of the control sera”. In test [2], the “Recognition of the peptide” value is “recognized in linear and in looped form”.
TVVQRCASNKPHVLE: in [1], the “Rabbit serum linear peptides” value was 0.7 and the “Rabbit serum looped peptides” value was determined as 0.3. The “Recognition by at least one” value with two control sera is “recognized by at least one of the control sera”. The “Recognition of the peptide” value in test [2] is “recognized in linear and in looped form”.
Consider CTVVQRCASNKPHVL, for which, in test [1], the “Rabbit serum linear peptides” value was 1.7 and the “Rabbit serum looped peptides” value is 1.0. The “Recognition by at least one” value in the test on two control sera is listed as “recognized by at least one of the control sera”. Besides, the “Recognition of the peptide” value in test [2] was “recognized in linear and in looped form”.
ICTVVQRCASNKPHV: in test [1], the “Rabbit serum linear peptides” value was determined as 0.3 and the “Rabbit serum looped peptides” value is recorded as 0.4. The “Recognition by at least one” value with two control sera is “recognized by at least one of the control sera”. Besides, the “Recognition of the peptide” value in test [2] was “recognized in linear and in looped form”.
In the case of YNFLKEQHCQKASTQ, in [3], the “Control serum LUMC linear peptides” value is given as 0.5 and the “Control serum LUMC looped peptides” value was 0.5. The “Binding of serum 62 to linear peptides of Orf14 of SARS-CoV TOR2” value in the test on serum 62 (individual 62) is reported as 0.5. Also, the “Binding of serum 1b to linear peptides of Orf14 of SARS-CoV TOR2” value (“Binding of serum 1b” below) in test [4] amounted to 0.4. In addition, the “Binding of serum SARS-yellow to linear peptides of Orf14 of SARS-CoV TOR2” value (shortened to “Binding of serum SARS-yellow”) with serum SARS-yellow is recorded as 0.3. The “Binding of serum 37 to linear peptides of Orf14 of SARS-CoV TOR2” value in the test with serum 37 (individual 37) stood at 0.6. Moreover, the “Binding of serum London to linear peptides of Orf14 of SARS-CoV TOR2” value (from here on “Binding of serum London”) with serum London worked out at 0.7. For the same sequence, the “Binding of serum 6 to linear peptides of Orf14 of SARS-CoV TOR2” value with serum 6 (individual 6) is 0.5. In test [5], the “Control Serum Blood-Bank Looped peptides” value is given as 0.7 and the “Control serum Blood-bank linear peptides” value was determined as 0.5. Further, the “Recognition of the peptide” value in test [2] is recorded as “recognized in looped form”. In addition, in the test with serum SARS-green, the “Binding of serum SARS-green to linear peptides of Orf14 of SARS-CoV TOR2” value (“Binding of serum SARS-green” below) is 0.5. In the test on serum 2 (individual 2), the “Binding of serum 2 to linear peptides of Orf14 of SARS-CoV TOR2” value was 0.5. Moreover, the “Binding of serum 1a to linear peptides of Orf14 of SARS-CoV TOR2” value (shortened to “Binding of serum 1a”) in test [6] is 0.5.
As to CQKASTQREAEAAVK, in [3], the “Control serum LUMC linear peptides” value was determined as 0.2 and the “Control serum LUMC looped peptides” value worked out at 0.5. Further, in the test with serum 62 (individual 62), the “Binding of serum 62 to linear peptides of Orf14 of SARS-CoV TOR2” value was 0.2. Also, the “Binding of serum 1b” value in test [4] is 0.2. Further, the “Binding of serum SARS-yellow” value in the test with serum SARS-yellow came out at 0.1. Besides, the “Binding of serum 37 to linear peptides of Orf14 of SARS-CoV TOR2” value in the test on serum 37 (individual 37) is on record as 0.3. In addition, the “Binding of serum London” value with serum London turned out to be 0.2. The “Binding of serum 6 to linear peptides of Orf14 of SARS-CoV TOR2” value in the test on serum 6 (individual 6) was 0.2. In addition, in test [5], the “Control Serum Blood-Bank Looped peptides” value was found to be 0.7 and the “Control serum Blood-bank linear peptides” value is on record as 0.2. Besides, the “Recognition of the peptide” value in test [2] is listed as “recognized in looped form”. Besides, the “Binding of serum SARS-green” value in the test on serum SARS-green is 0.0. Also, the “Binding of serum 2 to linear peptides of Orf14 of SARS-CoV TOR2” value in the test with serum 2 (individual 2) is on record as 0.3. Moreover, in test [6], the “Binding of serum 1a” value turned out to be 0.3.
Regarding VPPALHLVDPQIQLT, in test [1], the “Rabbit serum linear peptides” value was 1.0 and the “Rabbit serum looped peptides” value is 0.4. Also, the “Recognition by at least one” value in the test with two control sera is recorded as “recognized by at least one of the control sera”. The “Recognition of the peptide” value in test [2] is “recognized in linear and in looped form”.
KEQHCQKASTQREAE: in [3], the “Control serum LUMC linear peptides” value stood at 0.3 and the “Control serum LUMC looped peptides” value amounted to 0.8. Also, the “Binding of serum 62 to linear peptides of Orf14 of SARS-CoV TOR2” value in the test on serum 62 (individual 62) is given as 0.2. The “Binding of serum 1b” value in [4] worked out at 0.3. Moreover, the “Binding of serum SARS-yellow” value in the test with serum SARS-yellow amounted to 0.2. Moreover, the “Binding of serum 37 to linear peptides of Orf14 of SARS-CoV TOR2” value in the test on serum 37 (individual 37) worked out at 0.4. For the same sequence, the “Binding of serum London” value in the test with serum London is recorded as 0.3. The “Binding of serum 6 to linear peptides of Orf14 of SARS-CoV TOR2” value with serum 6 (individual 6) was 0.3. In [5], the “Control Serum Blood-Bank Looped peptides” value was 0.9 and the “Control serum Blood-bank linear peptides” value came out at 0.3. In [2], the “Recognition of the peptide” value is recorded as “recognized in looped form”. Also, the “Binding of serum SARS-green” value in the test on serum SARS-green is on record as 0.1. In addition, the “Binding of serum 2 to linear peptides of Orf14 of SARS-CoV TOR2” value in the test on serum 2 (individual 2) was 0.4. Also, in [6], the “Binding of serum 1a” value is on record as 0.4.
NFLKEQHCQKASTQR: in [3], the “Control serum LUMC linear peptides” value was found to be 0.7 and the “Control serum LUMC looped peptides” value worked out at 0.7. In the test with serum 62 (individual 62), the “Binding of serum 62 to linear peptides of Orf14 of SARS-CoV TOR2” value was found to be 0.3. The “Binding of serum 1b” value in test [4] is 0.3. Further, the “Binding of serum SARS-yellow” value with serum SARS-yellow was found to be 0.3. In addition, in the test with serum 37 (individual 37), the “Binding of serum 37 to linear peptides of Orf14 of SARS-CoV TOR2” value is given as 0.5. Further, the “Binding of serum London” value in the test with serum London turned out to be 0.4. In addition, in the test on serum 6 (individual 6), the “Binding of serum 6 to linear peptides of Orf14 of SARS-CoV TOR2” value is given as 0.4. In test [5], the “Control Serum Blood-Bank Looped peptides” value stood at 0.6 and the “Control serum Blood-bank linear peptides” value stood at 0.5. For the same sequence, in test [2], the “Recognition of the peptide” value is given as “recognized in looped form”. For the same sequence, the “Binding of serum SARS-green” value in the test on serum SARS-green is reported as 0.3. Also, the “Binding of serum 2 to linear peptides of Orf14 of SARS-CoV TOR2” value in the test with serum 2 (individual 2) is 0.4. Further, the “Binding of serum 1a” value in [6] worked out at 0.4.
